Results reported in US20050090529A1, “3,5 Disubstituted indazole compounds with nitrogen-bearing 5-membered heterocycles, pharmaceutical compositions, and methods for mediating or inhibiting cell proliferation” (PFIZER INC, priority 2003, published 2005).
Converted amounts (≈) assume the structure as drawn. Where two headings read alike, the source gives them in different places.

Experiments:
[1] = biological target: T1, CDK2/Cyclin A (Homo sapiens, UniProt P24941); assay: Inhibition of CDK2/Cyclin A retinoblastoma kinase activity (apparent Ki); assay type: biochemical
T1 construct: made in house; host or cells: CDK2: insect cells (baculovirus); cyclin A: E. coli
How it was run: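 Cyclin A complex (proteolyzed cyclin) purified by gel filtration; enzyme-initiated reactions ran 20 min at 30 °C, transferring radiolabelled phosphate from [32P]/[33P]ATP onto a protein substrate, stopped with EDTA and quantified by phosphorimager.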

[2] = Measurement of kinetic solubility; conditions: pH 6.5, aqueous buffer, kinetic from dmso stock
Description: Kinetic solubility was determined with a […] stock solution from the compound(s) of interest. […] Samples and standards were then centrifuged and an aliquot was removed for HPLC analysis. Samples and standards were analyzed by HPLC and a final concentration for the sample was determined based on a one-point calibration curve from the corresponding standard. Results were reported as μg's/mL.

Structure (SMILES) | solubility ([2]; 100 mM sodium phosphate buffer) [µg/mL] | Ki ([1]; read-out: CDK2 Ki) [nM] | Ki [1] [nM] | solubility [2] [µg/mL]
CCNCc1cncc(-c2ccc3[nH]nc(-c4nc(C(=O)NCCOC)c[nH]4)c3c2)c1C [Example 65, 2-(5-{5-[(ethylamino)methyl]-4-methylpyridin-3-yl}-1H-indazol-3-yl)-N-(2-methoxyethyl)-1H-imidazole-5-carboxamide] | > 120 | – | < 50 | –
CCNCc1cncc(-c2ccc3[nH]nc(-c4ncc(C(=O)N5CCN(Cc6ccccc6)CC5)[nH]4)c3c2)c1C [Example 66, N-{[5-(3-{5-[(4-benzylpiperazin-1-yl)carbonyl]-1H-imidazol-2-yl}-1H-indazol-5-yl)-4-methylpyridin-3-yl]methyl}ethanamine] | – | < 50 | – | > 120
CCNCc1cncc(-c2ccc3[nH]nc(-c4ncc(C(=O)NC5C6CC7CC(C6)CC5C7)[nH]4)c3c2)c1C (stereo not shown) [Example 72, N-2-adamantyl-2-(5-{5-[(ethylamino)methyl]-4-methylpyridin-3-yl}-1H-indazol-3-yl)-1H-imidazole-5-carboxamide] | < 20 | < 50 | – | –
CCNCc1cncc(-c2ccc3[nH]nc(-c4nc(C(=O)N5CCCCCC5)c[nH]4)c3c2)c1C [Example 74, N-[(5-{3-[5-(azepan-1-ylcarbonyl)-1H-imidazol-2-yl]-1H-indazol-5-yl}-4-methylpyridin-3-yl)methyl]ethanamine] | > 120 | < 50 | – | –
CCNCc1cncc(-c2ccc3[nH]nc(-c4ncc(C(=O)N[C@H]5CCCCNC5=O)[nH]4)c3c2)c1C [Example 75, 2-(5-{5-[(ethylamino)methyl]-4-methylpyridin-3-yl}-1H-indazol-3-yl)-N-[(3S)-2-oxoazepan-3-yl]-1H-imidazole-5-carboxamide] | > 120 | < 50 | – | –
CCNCc1cncc(-c2ccc3[nH]nc(-c4nc(C(=O)NC5CCNCC5)c[nH]4)c3c2)c1C [Example 76, 2-(5-{5-[(ethylamino)methyl]-4-methylpyridin-3-yl}-1H-indazol-3-yl)-N-piperidin-4-yl-1H-imidazole-5-carboxamide] | > 120 | 50 to 200 | – | –
CCNCc1cncc(-c2ccc3[nH]nc(-c4nc(C(=O)NC5CC6CCC(C5)N6)c[nH]4)c3c2)c1C (stereo not shown) [Example 77, N-8-azabicyclo[3.2.1]oct-3-yl-2-(5-{5-[(ethylamino)methyl]-4-methylpyridin-3-yl}-1H-indazol-3-yl)-1H-imidazole-5-carboxamide] | > 120 | > 200 | – | –

Now from value to compound, other results behind:

solubility ([2]; 100 mM sodium phosphate buffer) [µg/mL] | Ki ([1]; read-out: CDK2 Ki) [nM] | Structure (SMILES) | Ki [1] [nM] | solubility [2] [µg/mL]
20 to 120 (≈ 38.6 to 232 µM) | < 50 | CCNCc1cncc(-c2ccc3[nH]nc(-c4ncc(C(=O)N5CC=C(c6ccccc6)CC5)[nH]4)c3c2)c1C [Example 67, N-{[4-methyl-5-(3-{5-[(4-phenyl-3,6-dihydropyridin-1(2H)-yl)carbonyl]-1H-imidazol-2-yl}-1H-indazol-5-yl)pyridin-3-yl]methyl}ethanamine] | – | –
< 20 | < 50 | CCNCc1cncc(-c2ccc3[nH]nc(-c4ncc(C(=O)N5Cc6ccccc6C5)[nH]4)c3c2)c1C [Example 68, N-[(5-{3-[5-(1,3-dihydro-2H-isoindol-2-ylcarbonyl)-1H-imidazol-2-yl]-1H-indazol-5-yl}-4-methylpyridin-3-yl)methyl]ethanamine] | – | –
20 to 120 (≈ 35.9 to 216 µM) | < 50 | CCNCc1cncc(-c2ccc3[nH]nc(-c4ncc(C(=O)N5CCN(c6ccc(F)cc6F)CC5)[nH]4)c3c2)c1C [Example 69, N-({5-[3-(5-{[4-(2,4-difluorophenyl)piperazin-1-yl]carbonyl}-1H-imidazol-2-yl)-1H-indazol-5-yl]-4-methylpyridin-3-yl}methyl)ethanamine] | – | –
20 to 120 (≈ 40.2 to 241 µM) | < 50 | CCNCc1cncc(-c2ccc3[nH]nc(-c4ncc(C(=O)N5CCC6CCCCC6C5)[nH]4)c3c2)c1C (stereo not shown) [Example 71, N-[(4-methyl-5-{3-[5-(octahydroisoquinolin-2(1H)-ylcarbonyl)-1H-imidazol-2-yl]-1H-indazol-5-yl}pyridin-3-yl)methyl]ethanamine] | – | –
